Assay results from patent publication US10718006B2, “Methods for detecting beta-lactamase-producing bacteria” (priority 2015, dated 2020).

Columns and labels:
[1] = tested on: E. coli strains ESBL+ (MIAE6690) and ESBL− (K12); test: Optical density of E. coli strains cultured with cefotaxime; format: cell-based
[2] = tested on: ESBL+ E. coli strain; test: ESBL+ E. coli cultured with cefotaxime with or without clavulanate potassium; format: cell-based
Procedure: FIG. 4: Cyclic voltammograms (v=50 mV·s^−1) recorded with a screen-printed sensor for the E. coli strain ESBL^+ cultured in a culture medium containing only 4 μg·mL^−1 of cefotaxime (A) or supplemented with 10 μg·mL^−1 of clavulanate potassium, then centrifuged (1 mL; 7000 g; 10 min) before a step of incubation of the pellet with 50 μL in a 500-μM solution of nitrocefin in PBS for 10 min.
Since the hyperproduced cephalosporinases and the carbapenemases can also hydrolyse cefotaxime, the bacteria producing these enzymes can also give a positive response in the presence of cefotaxime. In order to distinguish the bacteria producing extended-spectrum beta-lactamases and the bacteria producing hyperproduced cephalosporinases and carbapenemases, the bacteria were cultured simultaneously in two culture media, one containing cefotaxime as antibiotic, the other additionally containing clavulanate potassium as inhibitor of ESBLs. After recovering the bacteria, the bacterial pellets were incubated with nitrocefin as substrate.

[3] = Cyclic voltammetry of nitrocefin and its form hydrolyzed by ESBL; format: physicochemical; conditions: screen-printed carbon electrodes; for peak of irreversible anodic oxidation (a1): PBS pH 7.0
From the text: Each sensor consists of the working electrode and a counter-electrode. The working area of the sensor (7.07 mm^2) is delimited with an adhesive ring, which also allows the electrochemical cell to be defined. For carrying out amperometric measurement, the sensor is inserted in a connector (Dropsens) connected to the potentiostat, and then a 20-μL drop of the solution to be analyzed is deposited on the surface of the sensor. After immersing a silver wire coated with a silver chloride precipitate (Ag/AgCl), which constitutes the reference electrode, the measurements are carried out by cyclic voltammetry (v=50 mV·s^−1) at ambient temperature.
5 μL of ESBL solution is put in a polypropylene tube containing 45 μL of 0.5 mM nitrocefin solution in phosphate buffer (PBS; 100 mM; pH=7.0). After a step of incubation for 10 minutes at ambient temperature in the dark, 20 μL of the mixture is taken and transferred onto the surface of the screen-printed carbon sensor. A reference electrode (Ag/AgCl) is then immersed in the 20 μL of solution previously deposited, and the cyclic voltammetry measurements are carried out by proceeding as follows: potential scanning between −0.4 V and 1.2 V at a rate of 50 mV·s^−1.
The oxidation peak appearing at about +0.3 V results from hydrolysis of the beta-lactam ring of nitrocefin and may be selected as the analytical response for identifying beta-lactamases in a sample.
Nitrocefin was hydrolyzed by an extended-spectrum beta-lactamase in an abundant quantity. The voltammetric behaviour of nitrocefin (S) and of its hydrolyzed form (P) was investigated by cyclic voltammetry using screen-printed electrodes based on carbon. Nitrocefin and hydrolyzed nitrocefin both have a peak of irreversible anodic oxidation (a1) at about +1.0 V vs. Ag/AgCl. This peak may be attributed to oxidation of the thiol group in the dihydrothiazine group or to other functions specific to the cephalosporin derivatives. […]

[4] = tested on: E. coli strains ESBL+ (MIAE6690) and ESBL− (K12); test: Voltammetric detection of ESBL-producing E. coli with nitrocefin; format: cell-based; conditions: pellet incubated 10 min with 500 μM nitrocefin
Procedure: Then 1 mL of each bacterial suspension is transferred to a polypropylene tube and centrifuged at 7000 g for 10 min. After removing the supernatant, a volume of 50 μL of nitrocefin solution (0.5 mM in PBS) is put in the tube and incubated with the bacterial pellet for 10 min at ambient temperature in the dark. The liquid is then aspirated and transferred onto the screen-printed sensor to carry out the voltammetric measurement as stated in section 1.3.
To evaluate the capacity of the voltammetric method for detecting the ESBL-producing bacteria, two strains of E. coli with a well-characterized genotype were selected, one being a producer of an ESBL (ESBL^+) and the other not producing ESBL (ESBL^−). First the two strains are cultured in LB medium containing 4 μg·mL^−1 of cefotaxime. After the centrifugation step, the respective bacterial pellets of these two strains are incubated with nitrocefin as substrate. […] The culture medium supplemented with cefotaxime and the medium without antibiotic were also subjected to voltammetric measurement. No specific signal is observed in the potential range [0.1-0.6 V vs. Ag/AgCl] for these two media, which confirms that neither the LB culture medium, nor cefotaxime interferes with voltammetric detection.

SMILES: CO/N=C(\C(=O)N[C@@H]1C(=O)N2C(C(=O)O)=C(COC(C)=O)CS[C@H]12)c1csc(N)n1 [cefotaxime]
- optical density ([1]; ESBL+ E. coli strain cultured in LB with 4 μg·mL^−1 cefotaxime): 0.934
- optical density ([1]; ESBL− E. coli strain cultured in LB with 4 μg·mL^−1 cefotaxime): 0.002
- E. coli count on selective medium ([2]; culture with cefotaxime without inhibitor): 1.8×10^8 CFU·mL^−1

SMILES: O=C(O)[C@H]1/C(=C/CO)O[C@@H]2CC(=O)N21 [clavulanate potassium]
- anodic peak resulting from hydrolysis of nitrocefin ([2]; ESBL+ strain cultured with 4 μg·mL^−1 cefotaxime and 10 μg·mL^−1 clavulanate potassium): no signal was recorded
- E. coli count on selective medium ([2]; culture with cefotaxime supplemented with an inhibitor (clavulanate potassium)): 80 CFU·mL^−1

SMILES: O=C(Cc1cccs1)NC(C(=O)O)C1NC(C(=O)O)=C(C=Cc2ccc([N+](=O)[O-])cc2[N+](=O)[O-])CS1 (stereo not shown) [hydrolyzed nitrocefin]
- peak of irreversible anodic oxidation (a1) [3]: about +1.0 V vs. Ag/AgCl
- peak of irreversible anodic oxidation (a2) ([3]; PBS pH 7.0, nitrocefin hydrolyzed by ESBL): about +0.3 V

SMILES: O=C(Cc1cccs1)N[C@@H]1C(=O)N2C(C(=O)O)=C(/C=C/c3ccc([N+](=O)[O-])cc3[N+](=O)[O-])CS[C@H]12 [nitrocefin]
- anodic peak associated with hydrolysis of the β-lactam ring of nitrocefin ([4]; ESBL+ E. coli strain): about +0.4 V vs. Ag/AgCl
- anodic peak associated with hydrolysis of the β-lactam ring of nitrocefin ([4]; ESBL− E. coli strain): no peak is recorded
- peak of irreversible anodic oxidation (a1) [3]: about +1.0 V vs. Ag/AgCl
